According to patent publication US6177475A, “Methods of using integrin modulators for treatment of inflammation” (priority 1997, dated 2001):

How the values were obtained:
[1] = system: MT-2 cells / K562/VCAM-1 cells (HTLV-I); assay: Syncytium formation of HTLV-I-infected MT-2 cells with K562/VCAM-1 cells; format: cell-based; details: 3.4 micromoles per liter; higher concentrations not tested
Description: MT-2 cells harbor the complete genome of human T cell lymphotropic virus type 1 (HTLV-I), and they transmit the virus to susceptible uninfected cells in cocultures. The transmission manifests itself as fusion of MT-2 cells with the uninfected cells, followed by syncytium formation. K562 cells transfected with VCAM-1, a ligand of the integrin VIA-4, were used as a fusion partner for MT-2 cells. MT-2 and K562/VCAM-1 cells were washed and resuspended in complete RPMI medium at a density of 2×10^6 /ml. MT2 cells were seeded into flat-bottom 96-well microtiter plates (100 microliters per well). Serial dilutions of Ajoene or of the disintegrin kistrin (final concentration) were introduced into the wells, and the plate was incubated for 30 min prior to addition of 100 microliters of K562/VCAM-1 cells. The plates were then incubated for 4 h before scoring syncytium formation.

[2] = system: lymphocyte infiltration into the pancreata; assay: Spontaneous development of autoimmune diabetes in NOD mice (lymphocyte infiltration of pancreata); format: in vivo, Nonobese diabetic (NOD) mice; details: 0.3 mg/kg i.p. every other day, 9 weeks
Description: (§1) Nonobese diabetic (NOD) mice are characterized by spontaneous development of insulitis (similar to human insulin-dependent diabetes) and sialoadenitis (similar to Sjogren's disease). The development of autoirmune inflammation in these animals involves several integrin receptors, including VLA-4, CR3, and LFA-1 (CD11a/CD18). Lymphocyte infiltration into the pancreata is mediated primarily by VIA-4, whereas the predominant mechanism of lymphocyte recruitment into the salivary glands involves LFA-1.
(§2) NOD mice (age, 3 to 4 weeks old; average body weight, 10 g) were divided into three groups. Experimental animals received intraperitoneal injections of disintegrins (0.3 mg/kg per animal every other day) for 9 weeks. Control mice were administered with the vehicle.
(§3) The mice were sacrificed and subjected to autopsy. The pancreata and salivary glands were removed and frozen (-70° C.). Thin sections (5 micrometer thick) of these organs were fixed in acetone, stained with hematoxylin and eosin, and evaluated microscopically for lymphocyte infiltration (Tables 6 and 7).

[3] = system: lymphocyte infiltration into the salivary glands; assay: Spontaneous development of autoimmune sialoadenitis in NOD mice (lymphocyte infiltration of salivary glands); format: in vivo, Nonobese diabetic (NOD) mice; details: 0.3 mg/kg i.p. every other day, 9 weeks
Description: as §1, §2, §3

[4] = pancreas, (+) 1-3 infiltrated islets
[5] = pancreas, (-) no infiltrating lymphocytes
[6] = (+) 1-3 small foci involving only one duct
[7] = (+++) 2 or more foci involving several ducts
[8] = (-) no infiltrating lymphocytes

Kistrin
inhibition of syncytium formation [1]: ~ 40%
development of large infiltrates in pancreatic islets [2]: completely prevented the development of large infiltrates
proportion of animals with mild infiltration of pancreatic islets [2]: increased the proportion of animals with mild infiltration of pancreatic islets
Number of mice with infiltration score (+) [2, 4]: 2 mice
Percentage of mice with infiltration score (+) [2, 4]: 40%
Number of mice with infiltration score (++) ([2]; pancreas, (++) 4 islets with moderate infiltration and/or 1-2 islets with large infiltrates): 0 mice
Number of mice with infiltration score (+++) ([2]; pancreas, (+++) 3 or more large infiltrates): 0 mice
Number of mice with infiltration score (-) [2, 5]: 3 mice
Percentage of mice with infiltration score (-) [2, 5]: 60%
Number of mice with infiltration score (+) [3, 6]: 2 mice
Percentage of mice with infiltration score (+) [3, 6]: 40.0%
Number of mice with infiltration score (++) ([3]; (++) small foci and/or 1 large focus involving several ducts): 0 mice
Number of mice with infiltration score (+++) [3, 7]: 1 mice
Percentage of mice with infiltration score (+++) [3, 7]: 20.0%
Number of mice with infiltration score (-) [3, 8]: 2 mice
Percentage of mice with infiltration score (-) [3, 8]: 40.0%
